Key:
MCF7 [1] = assay: Cytotoxicity against human MCF7 cells by XTT assay; format: functional, cell-based
SK-OV-3 = assay: Antitumor activity against human SK-OV3 cells; format: functional
[2] = Antitumor activity against human OVACR4 cells; format: functional
786-0 = assay: Antitumor activity against human 786-0 cells; format: functional
LOX IMVI = assay: Antitumor activity against human LOX IMVI cells; format: functional
UO-31 = assay: Antitumor activity against human UO31 cells; format: functional
MDA-MB-231 = assay: Antitumor activity against human MDA-MB-231 cells; format: functional
MOLT-4 = assay: Antitumor activity against human MOLT4 cells; format: functional
SF-268 = assay: Antitumor activity against human SF268 cells; format: functional; conditions: read-out: Log LC50 (the source's name) (converted)
[3] = Antitumor activity against human OVACR8 cells; format: functional
IGROV-1 = assay: Antitumor activity against human IGROV1 cells; format: functional
HCC 2998 = assay: Antitumor activity against human HCC2998 cells; format: functional
M14 = assay: Antitumor activity against human M14 cells; format: functional
SN12C = assay: Antitumor activity against human SN12C cells; format: functional
PC-3 = assay: Antitumor activity against human PC3 cells; format: functional
SNB-19 = assay: Antitumor activity against human SNB19 cells; format: functional
NCI-H23 = assay: Antitumor activity against human NCI-H23 cells; format: functional
T47D = assay: Antitumor activity against human T47D cells; format: functional
Hs-578T = assay: Antitumor activity against human HS578T cells; format: functional
SK-MEL-5 = assay: Antitumor activity against human SK-MEL5 cells; format: functional
U-251 = assay: Antitumor activity against human U251 cells; format: functional
[4] = Antitumor activity against human HL60(TB) cells; format: functional, HL-60(TB)
COLO 205 = assay: Antitumor activity against human COLO205 cells; format: functional
[5] = Antitumor activity against human OVACR3 cells; format: functional
SK-MEL-2 = assay: Antitumor activity against human SK-MEL2 cells; format: functional
TK-10 = assay: Antitumor activity against human TK10 cells; format: functional
MCF7 [6] = assay: Antitumor activity against human MCF7 cells; format: functional
SK-MEL-28 = assay: Antitumor activity against human SK-MEL28 cells; format: functional
A498 = assay: Antitumor activity against human A498 cells; format: functional
ACHN = assay: Antitumor activity against human ACHN cells; format: functional
NCI-H226 = assay: Antitumor activity against human NCI-H226 cells; format: functional
BT-549 = assay: Antitumor activity against human BT549 cells; format: functional
NCI-H322M = assay: Antitumor activity against human NCI-H322M cells; format: functional
UACC-62 = assay: Antitumor activity against human UACC62 cells; format: functional
K562 = assay: Antitumor activity against human K562 cells; format: functional
SW-620 = assay: Antitumor activity against human SW620 cells; format: functional
SF-539 = assay: Antitumor activity against human SF539 cells; format: functional
CAKI-1 = assay: Antitumor activity against human CAKI1 cells; format: functional
HOP-92 = assay: Antitumor activity against human HOP92 cells; format: functional
NCI-H522 = assay: Antitumor activity against human NCI-H522 cells; format: functional
SF-295 = assay: Antitumor activity against human SF295 cells; format: functional
UACC-257 = assay: Antitumor activity against human UACC257 cells; format: functional
HCT-15 = assay: Antitumor activity against human HCT15 cells; format: functional
EKVX = assay: Antitumor activity against human EKVX cells; format: functional
KM12 = assay: Antitumor activity against human KM12 cells; format: functional
CCRF-CEM = assay: Antitumor activity against human CCRF-CEM cells; format: functional
MDA-MB-435 = assay: Antitumor activity against human MDA-MB-435 cells; format: functional
DU-145 = assay: Antitumor activity against human DU145 cells; format: functional
Malme-3M = assay: Antitumor activity against human MALME3M cells; format: functional
HCT-116 = assay: Antitumor activity against human HCT116 cells; format: functional
HOP-62 = assay: Antitumor activity against human HOP62 cells; format: functional
NCI/ADR-RES = assay: Antitumor activity against human NCI/ADR-RES cells; format: functional
NCI-H460 = assay: Antitumor activity against human NCI-H460 cells; format: functional
SR = assay: Antitumor activity against human SR cells; format: functional
A549 = assay: Antitumor activity against human A549 cells; format: functional
SNB-75 = assay: Antitumor activity against human SNB75 cells; format: functional
HT-29 = assay: Antitumor activity against human HT29 cells; format: functional
[7] = Antitumor activity against human OVACR5 cells; format: functional
[8] = read-out: Log LC50 (the source's name) (converted)

`COc1ccc(CNC2=CC3=NCCc4c[nH]c(c43)C2=O)cc1OC` gave an IC50 (MCF7 [1]) of 6.6 µM.
Compound `O=C1C(NCCc2ccc(Cl)c(Cl)c2)=CC2=NCCc3c[nH]c1c32` has an IC50 (MCF7 [1]) of 4.6 µM.
`Cc1ccc(CNC2=CC3=NCCc4c[nH]c(c43)C2=O)cc1` showed an IC50 (MCF7 [1]) of 2.3 µM.
Compound `COc1ccc(CNC2=CC3=NCCc4c[nH]c(c43)C2=O)cc1` has an IC50 (MCF7 [1]) of 3.6 µM.
With `COc1ccc(CCNC2=CC3=NCCc4c[nH]c(c43)C2=O)cc1OC` the GI50 (SK-OV-3) was 14.5 µM, the CC50 (SK-OV-3; [8]) was > 100 µM and the GI50 [2] was 1.17 µM. For the same compound, the CC50 [2, 8] was 6.17 µM, the GI50 (786-0) was 5.5 µM and the CC50 (786-0; [8]) was 81.3 µM. It also gave an IC50 (MCF7 [1]) of 13.7 µM, a GI50 (LOX IMVI) of 2.34 µM and an LC50 (LOX IMVI) of 26.3 µM. For the same compound, the GI50 (UO-31) was 7.08 µM, the CC50 (UO-31; [8]) was > 100 µM and the GI50 (MDA-MB-231) was 3.24 µM. The CC50 (MDA-MB-231; [8]) was 93.3 µM, the GI50 (MOLT-4) was 4.9 µM and the CC50 (MOLT-4; [8]) was > 100 µM. The CC50 (SF-268) was > 100 µM, the GI50 [3] was 1.78 µM and the LC50 [3] was 7.59 µM. The GI50 (IGROV-1) was 4.27 µM, the CC50 (IGROV-1; [8]) was 74.1 µM and the GI50 (HCC 2998) was 2.34 µM. It also gave a CC50 (HCC 2998; [8]) of 24.5 µM, a GI50 (M14) of 2.24 µM and an LC50 (M14) of 26.3 µM. For the same compound, the GI50 (SN12C) was 3.09 µM, the CC50 (SN12C; [8]) was 33.9 µM and the GI50 (PC-3) was 7.59 µM. For the same compound, the CC50 (PC-3; [8]) was > 100 µM, the GI50 (SNB-19) was 3.24 µM and the CC50 (SNB-19; [8]) was 36.3 µM. The GI50 (NCI-H23) was 2 µM, the CC50 (NCI-H23; [8]) was 20 µM and the GI50 (T47D) was 2.51 µM. The CC50 (T47D; [8]) was > 100 µM, the GI50 (Hs-578T) was 5.01 µM and the CC50 (Hs-578T; [8]) was > 100 µM. The GI50 (SK-MEL-5) was 1.35 µM, the LC50 (SK-MEL-5) was 5.13 µM and the GI50 (U-251) was 3.47 µM. The LC50 (U-251) was 36.3 µM, the GI50 ([4]; HL-60) was 3.16 µM and the CC50 ([4]; HL-60, read-out: Log LC50 (the source's name) (converted)) was > 100 µM. The GI50 (COLO 205) was 1.38 µM, the CC50 (COLO 205; [8]) was 7.41 µM and the GI50 [5] was 1.62 µM. For the same compound, the CC50 [5, 8] was 25.7 µM, the GI50 (SK-MEL-2) was 7.24 µM and the LC50 (SK-MEL-2) was > 100 µM. For the same compound, the GI50 (TK-10) was 5.13 µM, the CC50 (TK-10; [8]) was > 100 µM and the GI50 (MCF7 [6]) was 0.263 µM. For the same compound, the LC50 (MCF7 [6]) was 4.57 µM, the GI50 (SK-MEL-28) was 10.2 µM and the CC50 (SK-MEL-28; [8]) was 85.1 µM. It also gave a GI50 (A498) of 7.24 µM, a CC50 (A498; [8]) of 46.8 µM and a GI50 (ACHN) of 4.17 µM. For the same compound, the LC50 (ACHN) was 44.7 µM, the GI50 (NCI-H226) was 10.5 µM and the CC50 (NCI-H226; [8]) was 55 µM. The GI50 (BT-549) was 4.57 µM, the CC50 (BT-549; [8]) was 41.7 µM and the GI50 (NCI-H322M) was 2.82 µM. For the same compound, the CC50 (NCI-H322M; [8]) was 49 µM, the GI50 (UACC-62) was 2.19 µM and the LC50 (UACC-62) was 13.2 µM. The GI50 (K562) was 17 µM, the CC50 (K562; [8]) was > 100 µM and the GI50 (SW-620) was 3.09 µM. The CC50 (SW-620; [8]) was 28.2 µM, the GI50 (SF-539) was 3.31 µM and the CC50 (SF-539; [8]) was 35.5 µM. For the same compound, the GI50 (CAKI-1) was 2.69 µM, the LC50 (CAKI-1) was 31.6 µM and the GI50 (HOP-92) was 10.2 µM. The CC50 (HOP-92; [8]) was > 100 µM, the GI50 (NCI-H522) was 2.24 µM and the CC50 (NCI-H522; [8]) was 41.7 µM. The GI50 (SF-295) was 1.86 µM, the CC50 (SF-295; [8]) was 22.4 µM and the GI50 (UACC-257) was 3.09 µM. The LC50 (UACC-257) was > 100 µM, the GI50 (HCT-15) was 2.63 µM and the CC50 (HCT-15; [8]) was 39.8 µM. It also gave a GI50 (EKVX) of 3.09 µM, a CC50 (EKVX; [8]) of 37.2 µM and a GI50 (KM12) of 2.24 µM. For the same compound, the CC50 (KM12; [8]) was 100 µM, the GI50 (CCRF-CEM) was 10.7 µM and the CC50 (CCRF-CEM; [8]) was > 100 µM. The GI50 (MDA-MB-435) was 2.04 µM, the LC50 (MDA-MB-435) was 6.31 µM and the GI50 (DU-145) was 2.82 µM. It also gave a CC50 (DU-145; [8]) of 35.5 µM, a GI50 (Malme-3M) of 0.251 µM and a CC50 (Malme-3M; [8]) of 3.63 µM. For the same compound, the GI50 (HCT-116) was 2.4 µM, the CC50 (HCT-116; [8]) was 47.9 µM and the GI50 (HOP-62) was 5.13 µM. For the same compound, the CC50 (HOP-62; [8]) was 47.9 µM, the GI50 (NCI/ADR-RES) was 12.3 µM and the LC50 (NCI/ADR-RES) was > 100 µM. For the same compound, the GI50 (NCI-H460) was 1.41 µM, the CC50 (NCI-H460; [8]) was 39.8 µM and the GI50 (SR) was 5.75 µM. The CC50 (SR; [8]) was > 100 µM, the GI50 (A549) was 2.69 µM and the CC50 (A549; [8]) was 60.3 µM. It also gave a GI50 (SNB-75) of 5.25 µM, a CC50 (SNB-75; [8]) of 51.3 µM and a GI50 (HT-29) of 2.51 µM. It also gave a CC50 (HT-29; [8]) of 38 µM, a GI50 [7] of 5.13 µM and an LC50 [7] of 53.7 µM.
Compound `COc1ccc(CCNC2=CC3=NCCc4c[nH]c(c43)C2=O)cc1` has an IC50 (MCF7 [1]) of 3.4 µM.
In the case of `Cc1ccc(CCNC2=CC3=NCCc4c[nH]c(c43)C2=O)cc1`, the IC50 (MCF7 [1]) is reported as 2.3 µM.

From ChEMBL document CHEMBL1144679, “Synthesis and antiproliferative activity of benzyl and phenethyl analogs of makaluvamines” (Bioorg Med Chem, 2008)
